Values of other authors as cited in paper PMC2970513 (Chemical biology & drug design, 2009).

Tested on: μ receptor
Conditions: compared with the N-methylated cyclic peptides of this paper

Substance: H-Tyr-D-Ala(NMe)-Phe-Sar-NH2
- μ receptor binding affinity, fold lower than those of the N-methylated cyclic peptides described here: 30-80 fold
